Two compounds from US6103709A (priority 1998, dated 2000) can be followed below.

The subject of test [1] is MAP-kinase p42^mapk in NB4 cells. As to the kind of experiment: MAP-kinase activation (p42mapk phosphorylation) in NB4 cells. The class given is cell-based, human. The procedure:
In order to determine whether MAP-kinase phosphorylation is specific and is altered by 1α,25(OH)2 D3, the time-dependent effects of 1α,25(OH)2 D3 on p42^mapk phosphorylation was examined using human acute promyelocytic leukemia cells (NB4). In this study, the NB4 cells, cultured in 10% charcoal-stripped fetal calf serum (FCS) medium, were treated with 1α,25(OH)2 D3 at 10^-8 M for various time periods. Cells were then extracted and the phosphorylated MAP-kinase was immunoprecipitated with anti-phosphotyrosine antibody and further analyzed by Western blot using the antibodies against p42^mapk.
The lysate was further processed for anti-phosphotyrosine immunoprecipitation. […] After transferring the proteins to the PVDF membrane, the membrane was further incubated with primary anti-p42^mapk antibodies that were (+) or were not (-) pre-exposed to MAP-kinase peptide.
This example describes assays used for measurement of MAP-kinase activity in NB4 cells.
Cell culture of NB4 cells
The cell line is characterized by a translocation involving chromosomes 15 and 17, which is typical of the classical form of APL-M3 in the French-American-British [FAB] classification. NB4 cells were cultured in DMEM/F12 medium with 10% FCS at 5% CO2 balanced air and were routinely passaged as suspension cultures and only passages 8 to 20 were used for each assay.
Immunoprecipitation of Tyrosine-Phosphorylated Proteins
NB4 cells were cultured in 60-mm diameter dishes and treated with 1,25(OH)2 D3 or analogs in 4 ml of DMEM/F12 containing 10% charcoal-stripped FCS.
Insoluble material was removed in a microcentrifuge at 14,000 rpm for 10 min. Protein concentration was determined with a protein assay kit (Bio-Rad Lab, Hercules, Calif.). For immunoprecipitation, the supernatant was incubated with bead-conjugated monoclonal anti-phosphotyrosine antibody overnight at 4° C. The immunoprecipitates containing the tyrosine-phosphorylated proteins were washed four times with freshly-prepared RIPA buffer and further eluted with 2× Laemmli gel buffer.
At this point, the samples were either stored at -20° C. for further use or processed via Western blots. Equal loading of MAP-kinase protein was determined by running the Western blots using polyclonal anti-p42^mapk antibody. For this purpose, samples were aliquoted from each cell extract before immunoprecipitation.
SDS Gel Electrophoresis and Western blot
The membrane was further immunoblotted using a rabbit anti-p42^mapk polyclonal antibody overnight at 4° C. followed by incubation with secondary horseradish peroxidase-conjugated mouse anti-rabbit antibody for 1 hr at 25° C. The phosphorylated MAP-kinase bands were then visualized by enhanced chemiluminescence (ECL). A Ultrascan LX Laser Densitometer (LKB, Bromma, Sweden) scanned the density of the immuno-phosphoprotein bands. The results were normalized by protein loading and further plotted as percent of control of the band density.

Test [2] deals with chloride channels in ROS 17/2.8 cells. The note with it: 1 nM HL in the bath; 1α,25(OH)2 D3 5 nM or less. The procedure:
In each case, at least a 3-min period was allowed after the addition of the analog to the bath for currents to reach a stable amplitude value. […] Anion currents were isolated from inward Ba^2+ currents after blockade of Ca^2+ channels with 100 μM Cd^2+.

The test system of test [3] is VDRmem. The experiment in a line: Binding to membrane receptor VDRmem. Particulars: relative to 1α,25(OH)2 D3.

“Also recorded” adds a separate entry of the source.

With `C=C1/C(=C\C=C2/CCC[C@]3(C)[C@@H]([C@H](C)CCCC(C)(C)O)CC[C@@H]23)C[C@@H](O)C[C@H]1O` [HL], in test [1] (HL 10^-9 M with 1α,25(OH)2 D3 at 1, 10 or 100×10^-10 M, 5 min), the “antagonism of 1α,25(OH)2 D3-mediated MAP-kinase activation” value was “antagonist of activation of MAP-kinases; also recorded: capable of antagonizing rapid responses; also recorded: able to block 1α,25(OH)2 D3”. Further, in test [1] (HL alone), the “stimulation of MAP-kinase by analog alone” value was “no stimulation of MAP-kinase”. Also, the “antagonism of 1α,25(OH)2 D3-stimulated chloride channel opening” value in test [2] is “capable of antagonizing rapid responses; also recorded: inhibit the ability of 1α,25(OH)2 D3 to increase outward currents”.
On to `C[C@H](CCCC(C)(C)O)[C@H]1CC[C@H]2C3=CC=C4C[C@@H](O)C[C@H](O)[C@@]4(C)[C@@H]3CC[C@]12C` [JN], for which the figures for the “activation of MAP-kinase versus 1α,25(OH)2 D3” value in test [1] (1 minute) and in test [1] (5 minute) were “more than 1α,25(OH)2 D3” and “only slightly less active”, respectively. For the same compound, the “binding to VDRmem receptor” value in test [3] worked out at 105%.
